The record followed here is patent US20060142188A1 (Memory Pharmaceuticals Corporation, priority 2003, published 2006).

Experiment [1] deals with T1, mutant (L270T) alpha7 nAchR (Macaca mulatta, UniProt Q866A2, L270T).
T1 construct: expressed in transfected cells
Put plainly: FLIPR functional measurement of mutant mkα7/L270T stably expressed in QM7 cells. The class given is cell-based, rhesus monkey. Particulars: Fluo-3AM, FIG. 7. As to the method: (§1) QM 7 cells were routinely grown as monolayers in minimum essential medium 199 supplemented with 5% FBS, 2% tryptose phosphate broth, 1% DMSO, penicillin (100 IU/ml) and were passaged every 3-4 days. Transfections with either rhesus monkey wild type alpha7 nAchR (mkα7) or mutant alpha7 nAchR (mkα7/L270T) were performed using Lipofectamine PLUS Kit (Invitrogen). Twenty-four hours after the transfection, cells were split for stable selection with 1 mg/ml G418. Single colonies were isolated and propagated. The expression of mkα7/L270T was identified with FLIPR for fluorescence changes after addition of agonist. The expression of mkα7 was identified by radioligand binding to [^3H]-methyllycaconitine (Virginio, C., A., Giacometti, A. et al. (2002). Pharmacological properties of rat alpha7 nicotinic receptors expressed in native and recombinant cell systems, Eur, J. Pharmacol. 445(3), 153-161.)
Cells were seeded into 96 well black wall and clear-bottom plates (Costar) coated with poly-D-lysine at a density of 20,000 cells per well and cultured overnight. […] The fluorescence was monitored (λex=488 […]) for three minutes immediately after the compound addition. The relative fluorescence unit (RFU) was measured as peak fluorescence intensity minus basal fluorescence intensity. […]

For experiment [2], the target named is T2, rhesus monkey wild-type alpha-7 nACh receptor (Macaca mulatta, UniProt Q866A2).
T2 construct: expressed in transfected cells
Kind of experiment: Patch clamp net charge analysis of wild-type mkα7 in stably transfected QM7 cells. Type of experiment: cell-based. Particulars: wild-type alpha-7 clone #1, dose response curve, FIG. 8, normalized to 1 mM ACh. As to the method:
as §1
Stably transfected QM7 cells grown on cover slips and expressing wild-type rhesus monkey alpha7 receptors were incubated at 37° C. in the presence of 5% CO2. Individual cover slips were removed for function analysis and placed in a recording buffer consisting of 140 mM NaCl, 5 mM KCl, 10 mM HEPES, 2 mM CaCl2, 1 mM MgCl2, 100 mM glucose titrated to pH 7.3 and perfused at 2-3 ml/min. […]

The structures appear in SMILES notation.

`COc1ccc(/C=C2\CCCN=C2c2cccnc2)c(OC)c1` [GTS-21]: in experiment [1], the “EC50 compared with nicotine” value is recorded as “better or comparable to that of nicotine”.

As to `CC(=O)OCC[N+](C)(C)C` [acetylcholine], in experiment [2], the EC50 stood at 38 µM.
